US7223733B2, “Modulation of TRIP-Br function and method of treating proliferative disorders” (National University of Singapore, priority 2004, dated 2007)
Where no end group is shown, it is not given here.

Legend:
[1] = test system: KRIP-1/TRIP-Br PHD-bromodomain interaction; assay: Immunoprecipitation assay of GAL4-KRIP-1/TRIP-Br complex formation (in vitro translated proteins); format: binding; conditions: 25 μM decoy peptides pre-incubated with GAL4-KRIP-1
Method: Preparation of proteins by in vitro translation. In vitro translation (IVT) products were synthesized from pcDNA3/TRIP-Br1, pcDNA3/TRIP-Br2 and pBlueScript/GAL4-KRIP-1 using the TNT T7 coupled reticulocyte lysate system (Promega). The in vitro translation reactions were carried out in a total reaction volume of 50 μl by incubating 1.0 μg of the indicated DNA template in nuclease-free water with 30 μl of TNT Quick master mix in the presence of [^35S]-methionine (Met) at 30° C. for 90 minutes.
Immunoprecipitation assay (IP). The binding reactions for IP were performed by incubating 1.5 μl [^35S]-Met labeled GAL4 or GAL4-KRIP-1 IVT products with 3 μl [^35S]-Met labeled TRIP-Br1 or TRIP-Br2 IVT products in 1×IP buffer (Hsu, S. I. H., et al. EMBO J. 20, 2273-2285 (2001)) at 4° C. for 1 h. For the analysis of decoy peptide-mediated blocking activity, the GAL4-KRIP-1 IVT product was pre-incubated with 25 μM decoy peptides at 4° C. for 30 minutes prior to addition of full-length TRIP-Br1 or TRIP-Br2 IVT products. Protein complexes precipitated using agarose-conjugated anti-GAL4 antibody were resolved by SDS-PAGE and then processed for autoradiography.
FIG. 1: TRIP-Br decoy peptides antagonize KRIP-1/TRIP-Br PHD-bromodomain interactions. […] GAL4-KRIP-1 was specifically immunoprecipitated by the agarose-conjugated anti-GAL4 antibody (Lanes 3-5 & 7–10) but not by the non-specific control anti-cyclin E antibody (Lane 6); (B) Antagonism of PHD-bromodomain interactions in vivo. U2OS cells were transiently transfected with 0.4 μg of the indicated GAL4 expression constructs and 1.2 μg of pMT3A/KRIP-1, along with 0.4 μg of the minimal luciferase reporter pG5-GL3 and 0.1 μg of the control reporter pCMV/β-gal. The transfected cells were exposed to either vehicle (0.5% DMSO) or 50 μM of the indicated decoy peptides prior to harvesting for sequential assay of luciferase and galactosidase activity. Fold activation refers to luciferase activity normalized to β-galactosidase activity, and is expressed relative to the activity observed with transfection of the reporter alone. […]

U2OS cells [2] = assay: BrdU incorporation colorimetric ELISA in U2OS cells; format: cell-based, human; conditions: for DNA synthesis activity (BrdU incorporation): U2OS, 50 μM, between 24 h and 48 h post-treatment; for ability to incorporate BrdU with increasing concentrations: U2OS, 5, 10, 20 or 50 μM, 48 h
Method: BrdU assay. U2OS cells grown in 96-well plates were exposed to either vehicle or decoy peptides. Bromodeoxyuridine (BrdU) incorporation was monitored with a colorimetric ELISA assay using a cell proliferation kit according to manufacturer's recommendations (Boehringer Mannheim).
(§1) FIG. 4: Time-dependent and dose-dependent anti-proliferative effects of the decoy peptides. (A) Time-dependent anti-proliferative effects of the decoy peptides. U2OS cells, exposed to either vehicle (0.5% DMSO) or 50 μM decoy peptides for either 24 or 48 h, were assayed for BrdU incorporation with a colorimetric ELISA assay. Values represent the average +/− standard deviation of two independent experiments; (B) Dose-dependent anti-proliferative effects of the decoy peptides. U2OS cells, exposed to 5, 10, 20 or 50 μM of *SCR (solid line and square), *Br1 (dashed line and triangle) or *Br2 (dashed line and circle) for 48 h, were assayed for BrdU incorporation with a colorimetric ELISA assay. Values represent the average +/− standard deviation of at least two independent experiments; (C) Cell proliferation analysis. Left panel: At 0, 48 and 72 h post decoy peptide treatment, total cell number was determined electronically using a Coulter® counter. Right panel: At 72 h post-treatment, cells were harvested and stained with trypan blue for viable cell count analysis.

U2OS cells [3] = assay: Cell number (Coulter counter) and viability (trypan blue) of U2OS cells; format: cell-based, human; conditions: for total cell number over time: 50 μM, 0, 48 and 72 h, Coulter counter; for viable cells, trypan blue manual count: 50 μM, 72 h, compared to vehicle or *SCR
Method: as §1, with “Determination of cell number and viability. U2OS cells grown in 6-well dishes for 24 h were exposed to 2 ml of growth medium containing either vehicle (0.5% DMSO) or 50 μM decoy peptides for 48 or 72 h. Following treatment, the cells were washed twice with 1×PBS, harvested by trypsinization and re-suspended in 1 ml 1×PBS. 10 μl of cell suspension was taken from each sample and enumerated either electronically or manually. For electronic total cell counts, 10 μl of cell suspension was diluted in 20 ml of isoton® II buffer (Coulter®) and cell number was estimated using an electronic Coulter® counter. For manual counting of viable cells, 10 μl of cell suspension from each sample was mixed with equal volume of trypan blue stain (Sigma, 0.4% w/v in 1×PBS). The number of viable (unstained) cells was enumerated manually using a hemocytometer. FIG.” for “FIG.”

KRIP-1/TRIP-Br PHD-bromodomain interaction, sequence (Q62318 621-811 limits assumed): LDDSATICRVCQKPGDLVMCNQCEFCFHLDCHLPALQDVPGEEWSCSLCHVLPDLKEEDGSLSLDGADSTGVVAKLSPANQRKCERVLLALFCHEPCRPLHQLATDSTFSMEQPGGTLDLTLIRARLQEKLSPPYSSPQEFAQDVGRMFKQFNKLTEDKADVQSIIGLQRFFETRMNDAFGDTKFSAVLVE

Sequence	GAL4-KRIP-1/TRIP-Br complex formation (co-IP of TRIP-Br1 or TRIP-Br2) [1]	DNA synthesis activity (BrdU incorporation) (U2OS cells [2])	total cell number over time (U2OS cells [3])	ability to incorporate BrdU with increasing concentrations (U2OS cells [2])	viable cells, trypan blue manual count (U2OS cells [3])
ERQIKIWFQNRRMKWKKGLDEDGLLLFCEGDTIAD (Peptide containing penetratin sequence from Drosophila and random peptide sequence) [*SCR, reference compound]	did not affect GAL4-KRIP-1/TRIP-Br complex formation	basal DNA synthesis rate similar to that of the vehicle-treated control cells	nearly identical increments in cell number over time		
ERQIKIWFQNRRMKWKKTGFLTDLTLDDILFADID (ERQIKIWFQNRRMKWKKTGFLTDLTLDDILFADID-NH2) [*Br2]	dramatically reduced the ability of GAL4-KRIP-1 to co-IP TRIP-Br1 or TRIP-Br2	substantially reduced DNA synthesis activity	nearly complete cessation of cell proliferation	progressively reduced ability to incorporate BrdU	significantly fewer viable cells
ERQIKIWFQNRRMKWKKATGCLLDDGLEGLFEDID (ERQIKIWFQNRRMKWKKATGCLLDDGLEGLFEDID-NH2) [*Br1]	dramatically reduced the ability of GAL4-KRIP-1 to co-IP TRIP-Br1 or TRIP-Br2	substantially reduced DNA synthesis activity	nearly complete cessation of cell proliferation	progressively reduced ability to incorporate BrdU	significantly fewer viable cells
